In BindingDB's records for doi:10.1021/jm020495y (F. Hoffmann-La Roche, 2003):

Experiments:
[1] = Antibacterial activity of TMP-susceptible Dihydrofolate reductase against […] ATCC 49619
[2] = Inhibitory activity of TMP-susceptible Dihydrofolate reductase against […] ATCC 49619

Structure (SMILES) | IC50 [1] | IC50 [2]
Nc1ncc(CN2CCc3c([nH]c4ccccc34)C2)c(N)n1 [5-(1,3,4,9-Tetrahydro-beta-carbolin-2-ylmethyl)-pyrimidine-2,4-diamine] | 4 nM | 
CC1c2ccc3c4ccccc4n(C)c3c2CCN1Cc1cnc(N)nc1N (stereo unspecified) [5-(4,11-Dimethyl-1,2,4,11-tetrahydro-pyrido[4,3-a]carbazol-3-ylmethyl)-pyrimidine-2,4-diamine] | 4 nM | 10 nM
CC1c2cc(Cc3ccccc3)c(-c3ccccc3)n2CCN1Cc1cnc(N)nc1N (stereo unspecified) [5-(7-Benzyl-1-methyl-6-phenyl-3,4-dihydro-1H-pyrrolo[1,2-a]pyrazin-2-ylmethyl)-pyrimidine-2,4-diamine] | 450 nM | 
CSc1c2n(c3cc(Cl)ccc13)CCN(Cc1cnc(N)nc1N)C2 [5-(7-Chloro-10-methylsulfanyl-3,4-dihydro-1H-pyrazino[1,2-a]indol-2-ylmethyl)-pyrimidine-2,4-diamine] | 2 nM | 
COc1ccc2c(c1)CN(Cc1cnc(N)nc1N)CC2c1cccc([N+](=O)[O-])c1 (stereo unspecified) [5-[7-Methoxy-4-(3-nitro-phenyl)-3,4-dihydro-1H-isoquinolin-2-ylmethyl]-pyrimidine-2,4-diamine] | 6 nM | 
